This is an account of results in US6555528B2 (Board of Supervisors of Louisiana State University and …, priority 1999, dated 2003).

Data set [1] has as its target T1, biotin carboxylase from Escherichia coli (Escherichia coli, UniProt P24182).
T1 construct: histidine-tag (N); made in house; host or cells: E. coli BL21(DE3)pLysS
Put plainly: Biotin carboxylase inhibition assay (spectrophotometric, ADP production coupled to pyruvate kinase/lactate dehydrogenase). Format: biochemical. The procedure: It catalyzes the first partial reaction shown above as reaction (1). […] See S. Li et al., J. Biol. Chem., vol. 267, 855-863 (1992); and H. Kondo et al., Proc. Natl. Acad. Sci. USA, vol. 88, pp. 9730-9733 (1991).
Purification was performed with a histidine-tag attached to the amino terminus of a mutant form of the enzyme and nickel affinity chromatography as described in C. […] 38, pp. 3393-3400 (1999).
The amount of ADP was determined using pyruvate kinase and lactate dehydrogenase, and the oxidation of NADH was followed at 340 nm. Each measurement was carried out in a volume of 0.5 ml in 1 cm path length quartz cuvettes. The reaction mixture contained 10 units of pyruvate kinase, 18 units of lactate dehydrogenase, 0.5 mM phosphoenolpyruvate, 0.2 mM NADH, 8 mM MgCl2 and 100 mM HEPES at pH 8.0. For inhibition studies compound 1 was dissolved in water, and the pH adjusted to 8 with HCl. The concentration of compound 1 was assayed by phosphorus analysis using the method of B. Ames et al., J. Biol. Chem., vol. 235, pp. 769-775 (1960).

Data set [2] is described as follows: Water solubility (observation at synthesis). It counts as physicochemical.

Read-outs that look alike come from different tables or passages of the source.

As to `O=C(O)CCCCC1SCC2C1NC(=O)N2C(=O)CP(=O)(O)O` (stereo not drawn) [Compound 1, 5-(6,8-Diaza-7-oxo-6-(2-phosphonoacetyl)-3-thiabicyclo[3.3.0] Oct-2-yl) pentanoic acid], the Ki in data set [1] (competitive inhibition versus ATP, read-out: slope inhibition constant) is 8 mM; in data set [1] (preliminary characterization, 9 mM bicarbonate, 0.1 mM ATP, 100 mM biotin, pH 8.0, read-out: inhibition constant) it was roughly 8 mM. Also, in data set [2], the water solubility result is recorded as “water soluble”.
For the molecule `O=C(O)CP(=O)(O)O` [Phosphonoacetate], the “type of inhibition versus ATP” value in data set [1] (versus ATP) is “competitve inhibition”. The “type of inhibition versus bicarbonate” value in data set [1] (versus bicarbonate) is given as “noncompetitve inhibition”.
`O=C(O)CCCC[C@@H]1SC[C@@H]2NC(=O)N[C@@H]21` [biotin]: the “substrate inhibition of biotin carboxylase” value in data set [1] (biotin as substrate) is on record as “noncompetitive substrate inhibitor”.
